According to patent publication US8314103B2, “Pyridyl derivatives, their preparation and use” (Piramal Enterprises Limited, priority 2007, dated 2012):

Legend:
Cytotoxicity assay (MTS) = format: cell-based; details: human, panel of HIF over expressing cell lines, average across a panel of HIF overexpressing cell lines, read-out: Cytotoxic Potential (MTS/PI), average IC50
Description: Cytotoxicity and Anti-proliferative Assay
Cytotoxic potential of compounds of the present invention was tested using various HIF over expressing cell lines (source and culture conditions as described in Table-1 herein above). Cells were seeded at a density of 3000-5000 cells per well in 180 μL volume in transparent 96 well tissue culture plate (NUNC, USA) and incubated for 12-18 hours at 37° C., 5% CO2. Subsequently, 20 μL of compounds of present invention (diluted in medium at concentrations ranging from 30 μM, 10 μM, 3 μM, 1 μM, 0.3 μM or 0.1 μM) were added to each well. Cells were then incubated for 48 hours at 37° C., 5% CO2. Following the incubation, 20 μL of MTS solution with PMS (Promega) was added in each well. After 4 hours incubation, the absorbance of the fluid in each well was determined at 490 nm using a microwell plate spectrophotometer reader (Molecular Devices, Sunnyvale, Calif., USA). In every experiment, each condition was run in triplicate wells.

mTOR = target: T1, mTOR (Homo sapiens, UniProt P42345); assay: Cell based mTOR assay; details: IGF-I induced AKT/p70S6K1 phosphorylation; read-out: Inhibition of mTOR (cell-based): IC50
T1 construct: endogenous in cells
Description: The mTOR assay was designed as given in Biochem J., 2000, 350, 717-722 with modifications as described below.
Cells were seeded in a 96 well microtitre plate at a density of 50,000 cells/cm^2 in appropriate complete cell culture medium. The cells were allowed to adhere for 18-24 hours. The cells were pretreated (in triplicates) with the test compound at a concentration of 10 μM for 30 minutes followed by induction with 400 ng/ml IGF-I for 24 hours (to induce AKT and p70S6K1 phosphorylation). A typical assay would consist of a set of unstimulated well, a set of stimulated and a set each of wells treated with compound and the stimulator. The medium was discarded. The cells were fixed with 100 μl of 3.7% formaldehyde for 15 minutes. The formaldehyde was discarded by inverting the plate and tapping it on a thick tissue paper layer to remove traces. The cells were washed and permeabilized with 200 μL PBS-Triton solution (containing 0.1% triton-X 100 in 1× PBS) three times, incubating the cells each time for 5 minutes. 100 μL blocking solution (10% FCS in PBS-Triton) was added and incubated for 1 hour at room temperature. The blocking solution was discarded and cells were incubated with the primary antibody in PBS-Triton at a dilution of 1:500 for 1 hour at room temperature. [The primary antibody is Phospho-AKT (Ser 473); Cell Signaling; Cat. No. 9271; Phospho p70S6K1 (Thr 389), Cell Signaling, Cat. No. 9205]. The primary antibody solution was discarded and the cells were washed 3 times with PBS-Triton solution and incubated with the HRP-conjugated secondary antibody in PBS-Triton at a dilution of 1:500 for 1 hour at room temperature. The cells were washed 3 times with PBS-Triton followed by two washes with PBS (to remove traces of triton-X 100). The OPD (o-phenylene diamine dihydrochloride) substrate was prepared for detection of the signal by dissolving one tablet set (two tablets) of SigmaFast OPD (Sigma, Cat No. P9187) in 20 mL distilled water, and was protected from light. 100 μL OPD solution was added to the wells and the plate was incubated in the dark for 3-5 minutes (depending upon the development of the colour). The reaction was stopped by adding 50 μL 2 N sulphuric acid (H2SO4). The absorbance was measured at 490 nm. The values were expressed in the treated samples, in terms of percentage or fold decrease in AKT/p70 phosphorylation with respect to the induced sample.

HIF-1α = HIF-1α assay (luciferase reporter gene, U251 HRE / U251 pGL3 cells); format: cell-based, human; details: SI greater than 4 indicates specificity towards HIF-1α inhibition under hypoxia conditions
[1] = tested on: HIF overexpressing cell lines; assay: Anti-proliferative assay (3H-Thymidine incorporation); format: cell-based; details: Homo sapiens; average across a panel of HIF overexpressing cell lines; 48 hours; read-out: Anti Proliferative Potential (3H-Thymidine), average IC50
Description: The anti-proliferative potential of compounds of present invention across a panel of cancer cell lines as described herein above was determined using ^3H-Thymidine incorporation. […] Cells were seeded at a density of 3000-5000 cells per well in 180 μL volume in transparent 96 well tissue culture plate (NUNC, USA) and incubated for 12-18 hours at 37° C., 5% CO2. Subsequently, 20 μL of compounds of present invention (diluted in medium at concentrations ranging from 30 μM, 10 μM, 3 μM, 1 μM, 0.3 μM or 0.1 μM) were added to each well. Cells were then incubated for 48 hours at 37° C., 5% CO2 After the incubation, all the medium from the plates was aspirated and ^3H-Thymidine was added to all wells at a concentration of 0.25 μCi/well in 200 μL it complete medium (RPMI with 10% FBS). Plates were incubated at 37° C., 5% CO2 for further 6-14 hours. Following this incubation period, cells from 96 well plates were harvested with the help of cell harvester (Packard, USA) on a 96 well glass-filter plate (Unifilter-96, GF/B, Packard, USA). The filter plates were dried completely at 60° C. for 1 hour or overnight at room temperature. After drying, the bottom of the plates was sealed with bottom seals and 0.05 mL/well of scintillate fluid was added per well (Microscint-O, Packard). The plates were sealed from the top, read on Scintillation counter (TopCount, Packard) and percent inhibition and IC50 were calculated.

PI3Kα kinase = PI3Kα kinase (Homo sapiens, UniProt P42336); assay: PI3Kα kinase assay; format: biochemical; details: 10 μM ATP; read-out: Inhibition of PI3Kα (kinase): IC50
PI3Kα kinase, sequence (P42336 whole entry): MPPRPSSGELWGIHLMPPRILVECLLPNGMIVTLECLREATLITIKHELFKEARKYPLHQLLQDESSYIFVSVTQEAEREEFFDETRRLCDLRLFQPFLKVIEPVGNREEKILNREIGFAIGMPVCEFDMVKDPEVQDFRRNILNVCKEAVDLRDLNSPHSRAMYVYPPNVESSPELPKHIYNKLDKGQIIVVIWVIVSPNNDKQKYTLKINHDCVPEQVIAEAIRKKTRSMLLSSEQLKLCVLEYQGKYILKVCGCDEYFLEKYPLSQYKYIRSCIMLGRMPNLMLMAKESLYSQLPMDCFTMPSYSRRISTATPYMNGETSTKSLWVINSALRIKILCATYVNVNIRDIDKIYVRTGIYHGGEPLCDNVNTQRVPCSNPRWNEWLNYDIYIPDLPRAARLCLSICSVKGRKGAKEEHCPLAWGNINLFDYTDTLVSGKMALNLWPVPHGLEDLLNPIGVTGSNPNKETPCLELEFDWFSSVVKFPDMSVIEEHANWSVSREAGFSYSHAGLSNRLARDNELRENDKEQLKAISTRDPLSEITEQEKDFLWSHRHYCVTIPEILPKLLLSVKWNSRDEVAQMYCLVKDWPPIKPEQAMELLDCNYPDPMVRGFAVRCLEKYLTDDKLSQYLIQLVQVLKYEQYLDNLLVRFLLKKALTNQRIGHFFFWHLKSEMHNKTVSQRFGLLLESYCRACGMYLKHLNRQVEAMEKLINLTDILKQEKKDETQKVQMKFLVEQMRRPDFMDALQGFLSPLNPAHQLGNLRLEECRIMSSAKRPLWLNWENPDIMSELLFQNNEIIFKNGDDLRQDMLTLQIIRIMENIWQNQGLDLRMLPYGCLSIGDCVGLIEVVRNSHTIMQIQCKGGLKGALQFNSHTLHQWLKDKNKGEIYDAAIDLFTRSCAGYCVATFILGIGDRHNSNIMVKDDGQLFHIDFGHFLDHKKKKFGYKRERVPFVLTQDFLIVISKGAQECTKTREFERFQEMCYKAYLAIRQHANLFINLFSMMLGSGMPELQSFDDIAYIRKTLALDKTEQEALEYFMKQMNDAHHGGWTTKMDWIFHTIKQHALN
PI3Kα kinase, sequence (P27986 whole entry partner): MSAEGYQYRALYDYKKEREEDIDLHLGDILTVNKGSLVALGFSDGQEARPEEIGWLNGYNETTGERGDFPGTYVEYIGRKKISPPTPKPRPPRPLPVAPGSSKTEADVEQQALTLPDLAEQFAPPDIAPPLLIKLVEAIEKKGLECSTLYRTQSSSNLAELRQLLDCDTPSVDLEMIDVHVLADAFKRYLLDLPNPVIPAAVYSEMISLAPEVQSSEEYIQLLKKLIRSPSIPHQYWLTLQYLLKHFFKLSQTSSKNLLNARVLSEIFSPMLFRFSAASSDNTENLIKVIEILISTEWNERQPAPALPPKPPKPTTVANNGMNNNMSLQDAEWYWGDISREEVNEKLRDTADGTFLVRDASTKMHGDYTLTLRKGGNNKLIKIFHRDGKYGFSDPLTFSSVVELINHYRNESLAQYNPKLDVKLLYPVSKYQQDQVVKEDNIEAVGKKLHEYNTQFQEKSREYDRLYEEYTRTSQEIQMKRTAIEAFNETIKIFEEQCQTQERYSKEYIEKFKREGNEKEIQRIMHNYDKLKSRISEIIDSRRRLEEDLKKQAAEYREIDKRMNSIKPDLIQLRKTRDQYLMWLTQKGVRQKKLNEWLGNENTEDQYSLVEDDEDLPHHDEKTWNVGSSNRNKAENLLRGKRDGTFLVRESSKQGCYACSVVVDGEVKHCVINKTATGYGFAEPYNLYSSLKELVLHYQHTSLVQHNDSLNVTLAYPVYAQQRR
Description: The PI3K kinase assay was designed as given in Cell, 2006, 125, 733-747.
The kinase reaction was carried out in a 25 μL reaction in a 1.5 ml microcentrifuge tube. The reaction mixture consisted of kinase buffer (10 mM Hepes, pH 7.5, 50 mM MgCl2), 20 ng PI3Kα kinase, 12.5 μg phosphotidylinositol (PI), 10 μM adenosine triphosphate (ATP) and 1 μCi 32γP […]. The compounds of the present invention were added at appropriate concentrations. The reactions were incubated at 30° C. for 20 minutes and were stopped by adding 1:1 mixture of methanol and chloroform. The tube contents were mixed on a vortex mixer and centrifuged at 10000 rpm for 2 minutes. 10 μL of the organic (lower) phase was spotted on to a thin layer chromatography (TLC) plate. The spots were resolved in a mobile phase consisting of a 65:35 mixture of n-propanol and 2 M glacial acetic acid. The plates were dried and exposed to an X-ray film. The bands appearing as a result of 32 g P incorporation in PI were quantitated using the QuantityOne (BioRad) densitometry program.

IC50 (mTOR)	IC50 (PI3Kα kinase)	Compound	IC50 at 48 h (Cytotoxicity assay (MTS))	Specificity Index (HIF-1α)	IC50 [1]
5000 nM	–	NC(=NO)c1ccc(NC(=O)CCl)cn1 [Example 4, 2-Chloro-N-(6-(N′-hydroxycarbamimidoyl)pyridin-3-yl)acetamide]	2200 ± 300 nM	>20	2000 ± 500 nM
–	–	O=C(CCl)Nc1ccc(-c2noc(C(F)(F)F)n2)nc1 [Example 29, 2-Chloro-N-[6-(5-(trifluoromethyl)-1,2,4-oxadiazol-3-yl)pyridin-3-yl]acetamide]	3500 ± 500 nM	>9	1500 ± 400 nM
–	–	Cc1nc(-c2ccc(NC(=O)CCl)cn2)no1 [Example 30, 2-Chloro-N-[6-(5-methyl-1,2,4-oxadiazol-3-yl)pyridin-3-yl]acetamide]	3000 ± 500 nM	>11	1500 ± 200 nM
–	–	O=C(CCl)Nc1ccc(-c2noc(C(F)(F)Cl)n2)nc1 [Example 41a, 2-Chloro-N-[6-(5-(chlorodifluoromethyl)-1,2,4-oxadiazol-3-yl)pyridin-3-yl]acetamide]	3500 ± 1000 nM	>10	–
–	–	O=C(CCl)Nc1ccc(-c2nc(O)cc(C(F)(F)F)n2)nc1 [Example 53, 2-Chloro-N-(6-(4-hydroxy-6-(trifluoromethyl)pyrimidin-2-yl)pyridin-3-yl)acetamide]	2000 ± 500 nM	>7	2000 ± 300 nM
5000 nM	1500 nM	C=CCOc1cc(C(F)(F)F)nc(-c2ccc(NC(=O)CCl)cn2)n1 [Example 60, N-(6-(4-(allyloxy)-6-(trifluoromethyl)pyrimidin-2-yl)pyridin-3yl-)-2-chloroacetamide]	2000 ± 200 nM	>15	800 ± 200 nM
5000 nM	1000 nM	COc1cc(C(F)(F)F)nc(-c2ccc(NC(=O)CCl)cn2)n1 [Example 61, 2-Chloro-N-(6-(4-methoxy-6-(trifluoromethyl)pyrimidin-2-yl)pyridin-3yl)acetamide]	3000 ± 200 nM	–	–
5000 nM	< 1000 nM	C=CCOc1nc(-c2ccc(NC(=O)CCl)cn2)nc(C)c1CC [Example 64, N-(6-(4-(allyloxy)-5-ethyl-6-methylpyrimidin-2-yl)pyridin-3yl)-2-chloroacetamide]	1500 ± 200 nM	–	1000 ± 200 nM
–	–	O=C(CCl)Nc1ccc(-c2nc(Cl)cc(C(F)(F)F)n2)nc1 [Example 71, 2-Chloro-N-(6-(4-chloro-6-(trifluoromethyl)pyrimidin-2-yl)pyridin-3-yl)acetamide]	1000 ± 200 nM	>6	800 ± 200 nM
